Series [1] has as its system SH-SY5Y. In words: Cytotoxicity against human SH-SY5Y cells assessed as reduction in cell viability incubated for 72 hrs by MTT assay. Format: ADME, cell-based. A general note: Tetrazolium dyes change colour on reduction, which living cells bring about.
Series [2] is described as follows: Solubility of compound at pH 7.4 at 1 to 100 uM. Particulars: buffer, pH 7.4, 100 µM; dose 1-100 µM. The format is physicochemical.
Series [3] has as its target Acetylcholinesterase (Homo sapiens, UniProt P22303). In words: Inhibition of human plasma AChE using acetylthiocholine iodide as substrate preincubated for 15 mins followed by substrate addition and measured after 10 mins by Ellman's method. Format: cell-free. In general terms: DTNB colorimetry detects thiols as they appear.
Series [4] deals with HEK293. Briefly: Cytotoxicity against human HEK293 cells assessed as reduction in cell viability incubated for 72 hrs by MTT assay. The format is ADME, cell-based. As to conditions: HEK293, 72 h.
Series [5] concerns the target Sodium-dependent serotonin transporter (Homo sapiens, UniProt P31645). Briefly: Displacement of [3H]paroxetine from human SERT expressed in human HEK293 cells incubated for 30 mins by liquid scintillation counting analysis. Format: cell-based.
Series [6] in a line: Reduction of beta-Amyloid40 level in mouse N2a cells transfected with human APP695 at 10 uM incubated for 16 hrs by ELISA relative to control. Format: functional. A general note: ELISA stands for enzyme-linked immunosorbent assay.

Bounds are passed on as bounds.

Chain of Acetylcholinesterase (P22303 whole entry): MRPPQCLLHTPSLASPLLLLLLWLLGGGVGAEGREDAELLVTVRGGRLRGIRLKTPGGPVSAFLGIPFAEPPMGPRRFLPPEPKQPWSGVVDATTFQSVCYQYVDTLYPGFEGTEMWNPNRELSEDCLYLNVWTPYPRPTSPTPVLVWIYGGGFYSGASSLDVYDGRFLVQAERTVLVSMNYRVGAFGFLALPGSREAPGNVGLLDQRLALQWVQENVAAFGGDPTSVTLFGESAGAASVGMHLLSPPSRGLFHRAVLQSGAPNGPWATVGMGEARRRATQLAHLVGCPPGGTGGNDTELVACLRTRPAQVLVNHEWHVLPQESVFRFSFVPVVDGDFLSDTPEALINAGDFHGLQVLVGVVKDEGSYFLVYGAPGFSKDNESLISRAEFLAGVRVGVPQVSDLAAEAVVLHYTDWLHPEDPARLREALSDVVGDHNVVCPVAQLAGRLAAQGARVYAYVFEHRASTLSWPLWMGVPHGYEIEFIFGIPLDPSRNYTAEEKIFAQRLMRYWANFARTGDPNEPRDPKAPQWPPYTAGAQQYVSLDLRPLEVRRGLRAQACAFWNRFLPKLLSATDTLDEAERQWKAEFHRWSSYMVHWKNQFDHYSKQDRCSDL
Chain of Sodium-dependent serotonin transporter (P31645 whole entry): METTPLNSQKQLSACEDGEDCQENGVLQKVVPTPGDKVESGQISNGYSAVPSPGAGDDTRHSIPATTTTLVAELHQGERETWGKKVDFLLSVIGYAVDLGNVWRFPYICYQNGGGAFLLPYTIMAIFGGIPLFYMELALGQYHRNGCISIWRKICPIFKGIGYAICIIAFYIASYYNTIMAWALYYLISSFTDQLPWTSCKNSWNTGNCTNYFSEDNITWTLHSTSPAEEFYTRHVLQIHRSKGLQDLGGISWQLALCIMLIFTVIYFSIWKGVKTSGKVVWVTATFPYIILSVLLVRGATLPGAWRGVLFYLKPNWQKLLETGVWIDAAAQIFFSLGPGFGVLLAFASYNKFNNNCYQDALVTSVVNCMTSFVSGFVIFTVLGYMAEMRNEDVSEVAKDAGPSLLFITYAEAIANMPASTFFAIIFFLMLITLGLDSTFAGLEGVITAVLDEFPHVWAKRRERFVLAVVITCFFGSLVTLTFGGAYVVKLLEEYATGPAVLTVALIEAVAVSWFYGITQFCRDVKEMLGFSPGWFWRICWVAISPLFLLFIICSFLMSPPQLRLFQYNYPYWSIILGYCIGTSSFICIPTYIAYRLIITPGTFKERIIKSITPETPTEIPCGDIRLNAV

As for `COc1ccc2[nH]cc(CCCN3CCN(C(=O)CN4CCN(C(=O)c5ccc(Br)cc5)CC4)CC3)c2c1`, the IC50 in series [1] is 150 µM; in series [3], more than 50 µM; in series [4] it was 80.5 µM; in series [5] it was more than 1000 µM. In series [2], the solubility entry was “Soluble”.

In the case of `O=C(CN1CCN(C(=O)c2cccc(Cl)c2)CC1)N1CCN(CCCc2c[nH]c3ccc(F)cc23)CC1`, the IC50 was found to be 59.8 µM in series [1], 18.4 µM in series [3], 66.2 µM in series [4] and 149 µM in series [5]. Moreover, the solubility result in series [2] is “Soluble”.

With `COc1cc2c(cc1OC)C(=O)C(CC1CCN(Cc3ccccc3)CC1)C2` (stereo not given) [DONEPEZIL], the IC50 in series [5] is more than 1000 µM.

Consider `COc1ccc2[nH]cc(CCCN3CCN(C(=O)CN4CCN(C(=O)c5cccc(F)c5)CC4)CC3)c2c1`, for which the IC50 in series [1] is more than 200 µM; in series [3], 37.3 µM; in series [4] it was more than 200 µM; in series [5] it was more than 1000 µM. For the same molecule, the solubility entry in series [2] was “Soluble”.

`O=C(CN1CCN(C(=O)c2ccc(Cl)cc2)CC1)N1CCN(CCCc2c[nH]c3ccccc23)CC1`: the IC50 was 139 µM in series [1], 35.2 µM in series [3], 98.2 µM in series [4] and more than 1000 µM in series [5]. The solubility result in series [2] is reported as “Soluble”.

As for `O=C(CN1CCN(C(=O)c2ccc(Br)cc2)CC1)N1CCN(CCCc2c[nH]c3ccc(F)cc23)CC1`, the IC50 is 47.4 µM in series [1], 39.4 µM in series [3], 60.5 µM in series [4] and 9.2 µM in series [5]. Moreover, the solubility result in series [2] is “Soluble”.

As to `O=C(CN1CCN(C(=O)c2cccc(F)c2)CC1)N1CCN(CCCc2c[nH]c3ccc(F)cc23)CC1`, the IC50 in series [1] is 169 µM; in series [3] it was more than 50 µM; in series [4] it was 83 µM; in series [5], 69 µM. In addition, in series [2], the solubility entry is “Soluble”.

In the case of `COc1cccc(C(=O)N2CCN(CC(=O)N3CCN(CCCc4c[nH]c5ccccc45)CC3)CC2)c1`, the IC50 was more than 200 µM in series [1], more than 50 µM in series [3], 143 µM in series [4] and more than 1000 µM in series [5]. The solubility entry in series [2] is “Soluble”.

For `COc1ccc2[nH]cc(CCCN3CCN(C(=O)CN4CCN(C(=O)c5ccc(F)cc5)CC4)CC3)c2c1`, the IC50 in series [1] was more than 200 µM; in series [3], more than 50 µM; in series [4], more than 200 µM; in series [5], more than 1000 µM. In series [2], the solubility entry is listed as “Soluble”.

Turning to `O=C(CN1CCN(C(=O)c2ccc(F)cc2)CC1)N1CCN(CCCc2c[nH]c3ccccc23)CC1`, the IC50 in series [1] is 188 µM; in series [3], 39.4 µM; in series [4], 141 µM; in series [5], more than 1000 µM. The solubility entry in series [2] is listed as “Soluble”.

Regarding `O=C(CN1CCN(C(=O)c2ccc(Br)cc2)CC1)N1CCN(CCCc2c[nH]c3ccccc23)CC1`, the half-maximal inhibitory concentration (IC50) was 59.3 µM in series [1], 35.7 µM in series [3], 71.9 µM in series [4] and more than 1000 µM in series [5]. Moreover, the solubility result in series [2] is recorded as “Soluble”.

Turning to `O=C(CN1CCN(C(=O)c2cccc(Cl)c2)CC1)N1CCN(CCCc2c[nH]c3ccccc23)CC1`, the IC50 in series [1] is 120 µM; in series [3] it was 32.4 µM; in series [4], 99.1 µM; in series [5] it was more than 1000 µM. Further, in series [2], the solubility result is “Soluble”.

Take `O=C(CN1CCN(C(=O)c2ccc(F)cc2)CC1)N1CCN(CCCc2c[nH]c3ccc(F)cc23)CC1`: the IC50 stood at 121 µM in series [1], 3.4 µM in series [3], 102 µM in series [4] and 212 µM in series [5]. Also, the solubility result in series [2] is recorded as “Soluble”.

For the molecule `Cc1ccc(C(=O)N2CCN(CC(=O)N3CCN(CCCc4c[nH]c5ccc(F)cc45)CC3)CC2)cc1`, the IC50 in series [1] came to 119 µM; in series [3], 3.6 µM; in series [4], 141 µM; in series [5], 122 µM. Besides, the solubility entry in series [2] is recorded as “Soluble”.

For `COc1ccc(C(=O)N2CCN(CC(=O)N3CCN(CCCc4c[nH]c5ccc(F)cc45)CC3)CC2)cc1`, the IC50 was found to be 161 µM in series [1], 14.4 µM in series [3], 141 µM in series [4] and 133 µM in series [5]. Moreover, the solubility entry in series [2] is “Soluble”.

With `O=C(CN1CCN(C(=O)c2ccccc2Br)CC1)N1CCN(CCCc2c[nH]c3ccc(F)cc23)CC1`, the IC50 in series [1] was 79.1 µM; in series [3] it was 33.3 µM; in series [4], 77.1 µM; in series [5], 1.9 µM. Also, the solubility entry in series [2] was “Soluble”.

Turning to `COc1ccc(C(=O)N2CCN(CC(=O)N3CCN(CCCc4c[nH]c5ccc(OC)cc45)CC3)CC2)cc1`, the IC50 in series [1] was 190 µM; in series [3] it was more than 50 µM; in series [4], 190 µM; in series [5] it was more than 1000 µM. Further, the solubility entry in series [2] is “Soluble”.

Turning to `COc1ccc2[nH]cc(CCCN3CCN(C(=O)CN4CCN(C(=O)c5ccccc5)CC4)CC3)c2c1`, testing at 10 µM in series [6] gave an inhibition of 37%. In addition, the IC50 in series [1] was more than 200 µM; in series [3], more than 50 µM; in series [4] it was more than 200 µM; in series [5] it was more than 1000 µM. For the same molecule, in series [2], the solubility entry is on record as “Soluble”.

For the molecule `COc1ccc2[nH]cc(CCCN3CCN(C(=O)CN4CCN(C(=O)c5ccc(Cl)cc5)CC4)CC3)c2c1`, the IC50 was 158 µM in series [1], more than 50 µM in series [3], 117 µM in series [4] and more than 1000 µM in series [5]. The solubility entry in series [2] is given as “Soluble”.

With `COc1cccc(C(=O)N2CCN(CC(=O)N3CCN(CCCc4c[nH]c5ccc(OC)cc45)CC3)CC2)c1`, the IC50 in series [1] was more than 200 µM; in series [3] it was more than 50 µM; in series [4], more than 200 µM; in series [5], more than 1000 µM. Besides, the solubility result in series [2] was “Soluble”.

Take `O=C(CN1CCN(C(=O)c2cccc(Br)c2)CC1)N1CCN(CCCc2c[nH]c3ccc(F)cc23)CC1`: the IC50 in series [1] stood at 71.6 µM; in series [3], 37.3 µM; in series [4] it was 40.6 µM; in series [5], 181 µM. Moreover, the solubility entry in series [2] was “Soluble”.

Consider `COc1ccc2[nH]cc(CCCN3CCN(C(=O)CN4CCN(C(=O)c5cccc(Br)c5)CC4)CC3)c2c1`, for which the IC50 in series [1] is 105 µM; in series [3], more than 50 µM; in series [4] it was 57 µM; in series [5], more than 1000 µM. Also, the solubility result in series [2] is reported as “Soluble”.

`Cc1ccc(C(=O)N2CCN(CC(=O)N3CCN(CCCc4c[nH]c5ccccc45)CC3)CC2)cc1`: the IC50 was more than 200 µM in series [1], 29.4 µM in series [3], 158 µM in series [4] and more than 1000 µM in series [5]. Also, the solubility result in series [2] is “Soluble”.

Regarding `COc1ccc2[nH]cc(CCCN3CCN(C(=O)CN4CCN(C(=O)c5ccc(C)cc5)CC4)CC3)c2c1`, the IC50 in series [1] was more than 200 µM; in series [3] it was more than 50 µM; in series [4], 147 µM; in series [5], more than 1000 µM. For the same molecule, the solubility entry in series [2] is on record as “Soluble”.

`COc1ccc(C(=O)N2CCN(CC(=O)N3CCN(CCCc4c[nH]c5ccccc45)CC3)CC2)cc1`: the IC50 was 148 µM in series [1], 25.1 µM in series [3], 156 µM in series [4] and more than 1000 µM in series [5]. The solubility result in series [2] is recorded as “Soluble”.

On to `COc1cccc(C(=O)N2CCN(CC(=O)N3CCN(CCCc4c[nH]c5ccc(F)cc45)CC3)CC2)c1`, for which the IC50 in series [1] is 79.4 µM; in series [3], 19.4 µM; in series [4], 87.1 µM; in series [5], 83 µM. The solubility entry in series [2] is reported as “Soluble”.

With `O=C(CN1CCN(C(=O)c2ccccc2)CC1)N1CCN(CCCc2c[nH]c3ccc(F)cc23)CC1`, the IC50 in series [1] was 146 µM; in series [3] it was more than 50 µM; in series [4], 148 µM; in series [5], 320 µM. Further, the solubility entry in series [2] is listed as “Soluble”.

In the case of `O=C(CN1CCN(C(=O)c2cccc(F)c2)CC1)N1CCN(CCCc2c[nH]c3ccccc23)CC1`, the IC50 in series [1] is 165 µM; in series [3] it was more than 50 µM; in series [4], 182 µM; in series [5] it was more than 1000 µM. Besides, the solubility result in series [2] is listed as “Soluble”.

As to `O=C(CN1CCN(C(=O)c2ccc(Cl)cc2)CC1)N1CCN(CCCc2c[nH]c3ccc(F)cc23)CC1`, the IC50 is 125 µM in series [1], 22.3 µM in series [3], 44.5 µM in series [4] and 546 µM in series [5]. In addition, in series [2], the solubility result is “Soluble”.

Turning to `COc1ccc2[nH]cc(CCCN3CCN(C(=O)CN4CCN(C(=O)c5cccc(Cl)c5)CC4)CC3)c2c1`, the IC50 is more than 200 µM in series [1], more than 50 µM in series [3], 143 µM in series [4] and more than 1000 µM in series [5]. Further, the solubility result in series [2] is “Soluble”.

For the molecule `COc1ccc2[nH]cc(CCCN3CCN(C(=O)CN4CCN(C(=O)c5ccccc5Br)CC4)CC3)c2c1`, the IC50 was 111 µM in series [1], more than 50 µM in series [3], 163 µM in series [4] and more than 1000 µM in series [5]. Besides, the solubility entry in series [2] was “Soluble”.

Take `O=C(CN1CCN(C(=O)c2ccccc2F)CC1)N1CCN(CCCc2c[nH]c3ccccc23)CC1`: the IC50 is 82.6 µM in series [1], 20.2 µM in series [3], 133 µM in series [4] and more than 1000 µM in series [5]. Also, in series [2], the solubility entry is on record as “Soluble”.

`CN(C)CCCC1(c2ccc(F)cc2)OCc2cc(C#N)ccc21` (stereo not given) [CITALOPRAM]: the IC50 in series [1] is more than 200 µM; in series [3], 73.3 µM; in series [4], more than 200 µM.

For `O=C(CN1CCN(C(=O)c2ccccc2)CC1)N1CCN(CCCc2c[nH]c3ccccc23)CC1`, the IC50 in series [1] was more than 200 µM; in series [3], more than 50 µM; in series [4] it was more than 200 µM; in series [5] it was more than 1000 µM. Also, the solubility entry in series [2] is “Soluble”.

Broadly, the IC50 is the midpoint of a concentration-inhibition curve. The inhibition is the share of the control response that was lost under treatment. A low value points to little suppression.

(Values after ChEMBL document CHEMBL4765313, “Synthesis, in vitro evaluation and molecular docking of a new class of indolylpropyl benzamidopiperazines as dual AChE and SERT ligands for Alzheimer's disease” (Eur J Med Chem, 2020).)
